Experimental data taken from US7420051B2, “Synthetic process for the manufacture of an ecteinaschidin compound” (Pharma Mar, S.A., priority 2000, dated 2008).

Columns and labels:
[1] = tested on: HT-29 (monolayer culture of a human colon carcinoma); assay: Cytotoxic activity screening, HT-29 cells; assay type: cell-based; settings: Homo sapiens, HT-29, 72 h, three days of incubation, Crystal Violet, approximate IC50
Description: (§1) Cell Cultures. Cells were maintained in logarithmic phase of growth in Eagle's Minimum Essential Medium, with Earle's Balanced Salts, with 2.0 mM L-glutamine, with non-essential amino acids, without sodium bicarbonate (EMEM/neaa); supplemented with 10% Fetal Calf Serum (FCS), 10^−2 M sodium bicarbonate and 0.1 g/l penicillin-G+streptomycin sulfate.
(§2) A simple screening procedure has been carried out to determine and compare the antitumour activity of these compounds, using an adapted form of the method described by Bergeron et al (1984). The tumour cell line employed have been P-388 (suspension culture of a lymphoid neoplasm from DBA/2 mouse), A-549 (monolayer culture of a human lung carcinoma), HT-29 (monolayer culture of a human colon carcinoma) and MEL-28 (monolayer culture of a human melanoma).
(§3) A-549, HT-29 and MEL-28 were seeded into 16 mm wells at 2×10^4 cells per well in 1 ml aliquots of MEM 10FCS containing the indicated concentration of drug. A separate set of cultures without drug was seeded as control growth to ensure that cells remained in exponential phase of growth. All determinations were carried out in duplicate. After three days of incubation at 37° C., 10% CO2 in a 98% humid atmosphere, the wells were stained with 0.1% Crystal Violet. An approximately IC50 was determined by comparing the growth in wells with drug to the growth in wells control.

[2] = tested on: A-549 (monolayer culture of a human lung carcinoma); assay: Cytotoxic activity screening, A-549 cells; assay type: cell-based; settings: Homo sapiens, A549, 72 h, three days of incubation, Crystal Violet, approximate IC50
Description: as §1, §2, §3

Structure (SMILES) | IC50 [1] [µM] | IC50 [2] [µM]
C=CCOc1c(C)c2c(c3c1CC1[C@H]4c5c(cc(C)c(OC)c5OCOCCOC)C[C@@H]([C@H](C#N)N1[C@H]3COC(CSCC1c3ccccc3-c3ccccc31)NC(=O)OC(C)(C)C)N4C)OCO2 (stereo partly shown) | > 1 | > 1
COCCOCOc1c(OC)c(C)cc2c1[C@@H]1C3Cc4c(O)c(C)c5c(c4[C@H](COC(CSCC4c6ccccc6-c6ccccc64)NC(=O)OC(C)(C)C)N3[C@@H](C#N)[C@H](C2)N1C)OCO5 (stereo partly shown) | 0.01 | 0.01
COCCOCOc1c(OC)c(C)cc2c1[C@@H]1C3CC4(O)C(=O)C(C)=C5OCOC5=C4[C@H](COC(CSCC4c5ccccc5-c5ccccc54)NC(=O)OC(C)(C)C)N3[C@@H](C#N)[C@H](C2)N1C (stereo partly shown) | 0.051 | 0.051
COCCOCOc1c(OC)c(C)cc2c1[C@@H]1C3[C@@H]4SC[C@@H](NC(=O)OC(C)(C)C)C(=O)OC[C@@H](c5c6c(c(C)c(OC(C)=O)c54)OCO6)N3[C@@H](C#N)[C@H](C2)N1C (stereo partly shown) |  | 0.012
C=CCOc1c(C)c2c(c3c1CC1[C@H]4c5c(cc(C)c(OC)c5O)C[C@@H]([C@H](C#N)N1[C@H]3COC(CSCC1c3ccccc3-c3ccccc31)NC(=O)OCc1ccccc1)N4C)OCO2 (stereo partly shown) | 0.11 | 0.11
C=CCOc1c(C)c2c(c3c1CC1[C@H]4c5c(cc(C)c(OC)c5OCOCCOC)C[C@@H]([C@H](C#N)N1[C@H]3COC(CSCC1c3ccccc3-c3ccccc31)NC(=O)OCc1ccccc1)N4C)OCO2 (stereo partly shown) | > 1 | > 1
COCCOCOc1c(OC)c(C)cc2c1[C@@H]1C3CC4(O)C(=O)C(C)=C5OCOC5=C4[C@H](COC(CSCC4c5ccccc5-c5ccccc54)NC(=O)OCc4ccccc4)N3[C@@H](C#N)[C@H](C2)N1C (stereo partly shown) | > 1 | > 1
COCCOCOc1c(OC)c(C)cc2c1[C@@H]1C3[C@@H]4SC[C@H](NC(=O)OCc5ccccc5)C(=O)OC[C@@H](c5c6c(c(C)c(OC(C)=O)c54)OCO6)N3[C@@H](C#N)[C@H](C2)N1C (stereo partly shown) | 0.59 | 0.59
COc1c(C)cc2c(c1O)[C@@H]1C3[C@@H]4SC[C@H](NC(=O)OCc5ccccc5)C(=O)OC[C@@H](c5c6c(c(C)c(OC(C)=O)c54)OCO6)N3[C@@H](C#N)[C@H](C2)N1C (stereo partly shown) | 0.0013 | 0.0013
C=CCOC(=O)N[C@@H]1CS[C@@H]2c3c(OC(C)=O)c(C)c4c(c3[C@H](COC1=O)N1C2[C@H]2c3c(cc(C)c(OC)c3O)C[C@@H]([C@@H]1C#N)N2C)OCO4 (stereo partly shown) |  | 0.00015
C=CCOc1c(C)c2c(c3c1CC1[C@H]4c5c(cc(C)c(OC)c5O)C[C@@H]([C@H](C#N)N1[C@H]3CO[Si](C)(C)C(C)(C)C)N4C)OCO2 (stereo partly shown) | > 1 | > 1
C=CCOc1c(C)c2c(c3c1CC1[C@H]4c5c(cc(C)c(OC)c5OCOCCOC)C[C@@H]([C@H](C#N)N1[C@H]3CO[Si](C)(C)C(C)(C)C)N4C)OCO2 (stereo partly shown) | > 1 | > 1
COCCOCOc1c(OC)c(C)cc2c1[C@@H]1C3Cc4c(O)c(C)c5c(c4[C@H](CO[Si](C)(C)C(C)(C)C)N3[C@@H](C#N)[C@H](C2)N1C)OCO5 (stereo partly shown) | > 1 | > 1
COCCOCOc1c(OC)c(C)cc2c1[C@@H]1C3CC4(O)C(=O)C(C)=C5OCOC5=C4[C@H](CO[Si](C)(C)C(C)(C)C)N3[C@@H](C#N)[C@H](C2)N1C (stereo partly shown) | > 1 | > 1
COCCOCOc1c(OC)c(C)cc2c1[C@@H]1C3CC4(O)C(=O)C(C)=C5OCOC5=C4[C@H](CO)N3[C@@H](C#N)[C@H](C2)N1C (stereo partly shown) | > 1 | > 1
C=CCOC(=O)NC(CSCC1c2ccccc2-c2ccccc21)OC[C@H]1C2=C3OCOC3=C(C)C(=O)C2(O)CC2[C@H]3c4c(cc(C)c(OC)c4OCOCCOC)C[C@@H]([C@H](C#N)N21)N3C (stereo partly shown) | > 1 | > 1
C=CCOC(=O)N[C@@H]1CS[C@@H]2c3c(OC(C)=O)c(C)c4c(c3[C@H](COC1=O)N1C2[C@H]2c3c(cc(C)c(OC)c3OCOCCOC)C[C@@H]([C@@H]1C#N)N2C)OCO4 (stereo partly shown) | 0.012 | 0.012
COCCOc1c(OC)c(C)cc2c1[C@@H]1C3[C@@H]4SC[C@H](NC(=O)OCc5ccccc5)C(=O)OC[C@@H](c5c6c(c(C)c(OC(C)=O)c54)OCO6)N3[C@@H](C#N)[C@H](C2)N1C (stereo partly shown) | 0.062 | 0.062
